Laboratory results: patent US10927141B2 (priority 2018, dated 2021)
Where “and” joins values, the source holds several entries; their conditions need not be identical. Equal values may be shown once. Read-outs that look alike come from different tables or passages of the source.

Tests used:
[1] = assay type: physicochemical
[2] = assay type: physicochemical; settings: 1 w
Description: For each salt, approximately 5 mg compound was added into an 8 mL glass vial with a multi-hole aluminum foil cap, and kept at 60° C., 40° C./75% RH for 1 week. […] Appearance by visual observation were recorded followed by purity assessment and XPRD data collection on the residual solids.

| Compound | Final purity ([1]; 1.2 million lux-hrs) | XRPD patterns ([1]; 1.2 million lux-hrs) | Final purity ([1]; Dark control) | XRPD patterns ([1]; Dark control) | Final purity ([2]; 40° C./75% RH) | XRPD patterns ([2]; 40° C./75% RH) | Final purity ([2]; 60° C.) | XRPD patterns ([2]; 60° C.) | XRPD pattern ([1]; 1.2 million lux-hrs) | XRPD pattern ([1]; Dark control) | XRPD pattern ([2]; 40° C./75% RH) | XRPD pattern ([2]; 60° C.) |
| --- | --- | --- | --- | --- | --- | --- | --- | --- | --- | --- | --- | --- |
| COCC1(O)CCC2(C)C(CCC3C2CCC2(C)C(C(=O)Cn4ccnc4)CCC32)C1.O=S(=O)(O)c1ccc2ccccc2c1 (centres unmarked) [Napsylate (Form A)] | 99.0 | Form A | 99.1 | Form A | 99.1 | Form A | 99.1 | Form A |  |  |  |  |
| COCC1(O)CCC2(C)C(CCC3C2CCC2(C)C(C(=O)Cn4ccnc4)CCC32)C1.Cl (centres unmarked) [Hydrochloride (Form B)] | 98.2 | Form B | 98.59 | Form B | 100.0 |  | 100.0 | Form B |  |  |  |  |
| COC[C@@]1(O)CC[C@@]2(C)[C@@H](CC[C@@H]3[C@@H]2CC[C@]2(C)[C@@H](C(=O)Cn4ccnc4)CC[C@@H]32)C1 [Compound 1, 3α-Hydroxy-3β-methoxymethyl-21-(1′-imidazolyl)-5α-pregnan-20-one] | 97.9 and 99.2 and 97.92 | Pattern A | 98.3 and 99.1 | Pattern A | 98.2 and 99.1 and 98.23 | Pattern A | 98.2 and 99.3 and 98.15 | Pattern A | Pattern A | Pattern A | Pattern A | Pattern A |
| COCC1(O)CCC2(C)C(CCC3C2CCC2(C)C(C(=O)Cn4ccnc4)CCC32)C1.O=S(=O)(O)CCO (centres unmarked) [Isethionate (Form A)] | 98.9 | Form A | 98.8 | Form A | 98.5 | Form A | 98.7 | Form A |  |  |  |  |
| COCC1(O)CCC2(C)C(CCC3C2CCC2(C)C(C(=O)Cn4ccnc4)CCC32)C1.O=C(O)C(O)C(O)C(=O)O (stereo not drawn) [L(+)-Tartrate (Form A)] | 99.4 | Form A | 99.2 | Form A | 99.3 | Form A | 99.3 | Form A |  |  |  |  |
| COC[C@@]1(O)CC[C@@]2(C)[C@@H](CC[C@@H]3[C@@H]2CC[C@]2(C)[C@@H](C(=O)Cn4ccnc4)CC[C@@H]32)C1.O=C1O[C@H]([C@@H](O)CO)C(O)=C1O [Ascorbate (Form A)] | 96.8 | Form A | 96.8 | Form A | 96.4 | Form A | 95.7 | Form A |  |  |  |  |
| COC[C@@]1(O)CC[C@@]2(C)[C@@H](CC[C@@H]3[C@@H]2CC[C@]2(C)[C@@H](C(=O)Cn4ccnc4)CC[C@@H]32)C1.O=P(O)(O)O [Phosphate (Form A)] | 98.9 | Form A | 99.2 | Form A | 99.2 | Form A | 99.2 | Form A |  |  |  |  |
| COC[C@@]1(O)CC[C@@]2(C)[C@@H](CC[C@@H]3[C@@H]2CC[C@]2(C)[C@@H](C(=O)Cn4ccnc4)CC[C@@H]32)C1.O=C(O)C[C@H](O)C(=O)O [L-Malate (Form B)] | 97.6 | Form B | 97.5 | Form B | 98.5 |  | 97.8 | Form B |  |  |  |  |
| COCC1(O)CCC2(C)C(CCC3C2CCC2(C)C(C(=O)Cn4ccnc4)CCC32)C1.O=C(O)c1ccc2ccccc2c1O (centres unmarked) [1-hydroxy-2-napthoate (Form A)] | 92.64 | Form A | 91.96 | Form A | 92.64 | Form A | 88.91 | Form A |  |  |  |  |
| CCS(=O)(=O)O.COCC1(O)CCC2(C)C(CCC3C2CCC2(C)C(C(=O)Cn4ccnc4)CCC32)C1 (centres unmarked) [Ethanesulfonate (Form A)] | 97.7 | Form A | 97.4 | Form A | 98.0 | Form A | 98.2 | Form A |  |  |  |  |
| COC[C@@]1(O)CC[C@@]2(C)[C@@H](CC[C@@H]3[C@@H]2CC[C@]2(C)[C@@H](C(=O)Cn4ccnc4)CC[C@@H]32)C1.O=C(O)C(=O)O [Oxalate (Form A)] | 98.2 | Form A | 98.9 | Form A | 98.4 | Form A | 98.3 | Form A |  |  |  |  |
| COCC1(O)CCC2(C)C(CCC3C2CCC2(C)C(C(=O)Cn4ccnc4)CCC32)C1.O=C(O)CC(O)C(=O)O [L-Malate (Form A)] | 99.3 | Form A | 99.3 | Form A | 99.2 | Form A | 99.6 | Form A |  |  |  |  |
| COC[C@@]1(O)CC[C@@]2(C)[C@@H](CC[C@@H]3[C@@H]2CC[C@]2(C)[C@@H](C(=O)Cn4ccnc4)CC[C@@H]32)C1.O=C(O)CC(=O)O [Malonate (Form A)] | 98.2 | Form A | 99.0 | Form A | 98.5 | Form A | 97.0 | Form A |  |  |  |  |
| COC[C@@]1(O)CC[C@@]2(C)[C@@H](CC[C@@H]3[C@@H]2CC[C@]2(C)[C@@H](C(=O)Cn4ccnc4)CC[C@@H]32)C1.Cl [Hydrochloride (Form A)] | 99.5 | Form A | 99.5 | Form A | 99.4 | Form A | 99.5 | Form A |  |  |  |  |
| COC[C@@]1(O)CC[C@@]2(C)[C@@H](CC[C@@H]3[C@@H]2CC[C@]2(C)[C@@H](C(=O)Cn4ccnc4)CC[C@@H]32)C1.O=S(=O)(O)c1ccccc1 [Besylate (Form A)] | 98.7 | Form A | 98.4 | Form A | 98.3 | Form A | 98.3 | Form A |  |  |  |  |
| COCC1(O)CCC2(C)C(CCC3C2CCC2(C)C(C(=O)Cn4ccnc4)CCC32)C1.Nc1ccc(C(=O)O)c(O)c1 (centres unmarked) [P-aminosalicylate (Form A)] | 95.7 | Form A | 95.8 | Form A | 97.0 | Form A | 91.5 | Form A |  |  |  |  |
| COC[C@@]1(O)CC[C@@]2(C)[C@@H](CC[C@@H]3[C@@H]2CC[C@]2(C)[C@@H](C(=O)Cn4ccnc4)CC[C@@H]32)C1.O=C(O)C(O)C(O)C(=O)O [L(+)-Tartrate (Form B)] | 99.3 | Form B | 99.2 | Form B | 99.2 | Form B | 99.2 | Form B |  |  |  |  |
| COCC1(O)CCC2(C)C(CCC3C2CCC2(C)C(C(=O)Cn4ccnc4)CCC32)C1.Cl (centres unmarked) [Hydrochloride (Form C)] | 100.0 | Form C | 99.2 | Form C | 100.0 | Form C | 98.6 | Form C |  |  |  |  |
| COCC1(O)CCC2(C)C(CCC3C2CCC2(C)C(C(=O)Cn4ccnc4)CCC32)C1.O=C(O)c1cc(O)ccc1O (centres unmarked) [Gentisate salt (Form A)] | 96.0 | Form A | 97.6 | Form A | 97.6 | Form A | 97.0 | Form A |  |  |  |  |
| COC[C@@]1(O)CC[C@@]2(C)[C@@H](CC[C@@H]3[C@@H]2CC[C@]2(C)[C@@H](C(=O)Cn4ccnc4)CC[C@@H]32)C1.O=S(=O)(O)O [Sulfate (Form A)] | 97.1 | Form A | 97.6 | Form A | 97.5 | Form A | 96.2 | Form A |  |  |  |  |
| COCC1(O)CCC2(C)C(CCC3C2CCC2(C)C(C(=O)Cn4ccnc4)CCC32)C1.O=CC(O)C(O)C(O)C(O)C(=O)O (centres unmarked) [Glucuronate (Form A)] | 97.5 | Form A | 97.5 | Form A | 98.0 | Form A | 96.7 | Form A |  |  |  |  |
| COCC1(O)CCC2(C)C(CCC3C2CCC2(C)C(C(=O)Cn4ccnc4)CCC32)C1.O=C(O)C(Cl)Cl (centres unmarked) [Dichloroacetate (Form A)] | 96.4 | Form A | 97.3 | Form A | 98.0 | Form A | 96.3 | Form A |  |  |  |  |
| COCC1(O)CCC2(C)C(CCC3C2CCC2(C)C(C(=O)Cn4ccnc4)CCC32)C1.Cc1ccc(S(=O)(=O)O)cc1 (centres unmarked) [Tosylate (Form A)] | 99.0 | Form A | 99.5 | Form A | 99.5 |  | 99.5 | Form A |  |  |  |  |
